Square brackets hold non-standard residues; d marks the D form. Peptide text beside a SMILES is read from it. * marks the point of attachment. ξ: configuration not given here. ξF = NC(Cc1ccccc1)C(=O)O; Cbz = O=C(OCc1ccccc1)*; CHN2 = [N-]=[N+]=C*
Tested on: SARS-CoV-2
Assay: Determination of antiviral efficacy in high-content imaging assay in Vero E6 cells infected with SARS-CoV-2 (USA-WA1/2020 isolate) at MOI 0.75 after 24 hrs
Type: functional, organism-based, Chlorocebus sabaeus
Details: Severe acute respiratory syndrome coronavirus 2, Vero C1008, 24 h

| SMILES | EC50 [nM] |
| --- | --- |
| COc1cc2c(cc1N1C[C@@H](C)N[C@@H](C)C1)N(C(=O)c1ccc(-c3ccc(-c4noc(C)n4)cc3C)cc1)CC2 | 1200 |
| C[C@@H]1CN(c2ncc(C(O)CO)cc2Cl)CCN1c1nc2c(-c3cc(F)c(F)c(F)c3)cc(C(F)(F)F)cc2[nH]1 (stereo partly specified) | 950 |
| C1=C(c2ccc(CN3CCCCC3)cc2)N2CCN=C2c2ccccc21 | 750 |
| CCC(CC)COC(=O)[C@H](C)N[P@](=O)(OC[C@H]1O[C@@](C#N)(c2ccc3c(N)ncnn23)[C@H](O)[C@@H]1O)Oc1ccccc1 | 620 |
| CCNC/C=C\CNCCCCNCCCCNC/C=C\CNCC | 250 |
| CC[C@H](NC(=O)[C@H](CS(=O)(=O)CC1CC1)N[C@@H](c1ccc(F)cc1)C(F)(F)F)C(=O)C(=O)NC1CC1 | 300 |
| CN(C)CCn1c(C(=O)N2CCN(c3ccccc3Cl)CC2)c(C(c2ccc(O)cc2)c2ccc(O)cc2)c2ccccc21 | 1200 |
| COc1cccc2c(N3CCc4ccccc4C3C)nc(Nc3ccc(F)cc3C)nc12 (stereo unspecified) | 950 |
| CC(C)(O)c1ccc2c(c1)/C(=C/CCN1CC[C@](O)(c3ccc(Cl)cc3)C(C)(C)C1)c1cccnc1CO2 | 140 |
| C[C@@H]1CS/C(=N\NC(=O)C(=O)[C@@H](NC(=O)C2CCCCCC2)C2CCOCC2)N1C | 500 |
| CC(C)CC(NC(=O)OCc1ccccc1)C(=O)NC(C(=O)NCC(=O)C=[N+]=[N-])C(C)C (stereo not drawn) (Cbz-Leu-Val-Gly-CHN2; configuration not given here) | 190 |
| CC(C)[C@H](NC(=O)OCc1ccccc1)C(=O)NC(C=O)Cc1ccccc1 (stereo partly drawn) (Cbz-Val-[ξF]-aldehyde) | 220 |
| Cc1cccc(/C=N/Nc2cc(N3CCOCC3)nc(OCCc3ccccn3)n2)c1 [APILIMOD] | 23 |
| Fc1ccc(-c2ccc(CN3CCN(c4cccc5ccoc45)CC3)[nH]2)cc1 [ELOPIPRAZOLE] | 1100 |
| COc1ccc2cc1Oc1ccc(cc1)C[C@H]1c3cc(c(OC)cc3CCN1C)Oc1c(OC)c(OC)cc3c1[C@H](C2)N(C)CC3 [FANCHININ] | 1100 |
| CC(C)(C)NCc1ccc(Nc2ccnc3cc(Cl)ccc23)cc1O [GSK-369796] | 1200 |
